# Target: CDK12/CycK complex (Homo sapiens, UniProt Q9NYV4)
# Assay: Measurement of CDK12 inhibitory activity by binding assay (TR-FRET, 66 nM BODIPY-FL-labeled AT-7519)
# Details: inhibitory rate against CDK12 at 1 μM test compound, 66 nM BODIPY-FL-labeled AT-7519, 2 nM CDK12/CycK
# Protocol: Experimental Example 1: CDK12 Binding Assay
# (3) Measurement of CDK12 Inhibitory Activity by Binding Assay
# His-tagged CDK12/CycK complex was added to a binding assay buffer supplemented with BODIPY-FL labeled AT-7519, terbium-labeled streptavidin and biotin-labeled anti-histidine antibody, and the mixture was stood for not less than 60 min at room temperature. This solution was added to an assay plate containing a test compound dispensed therein, and the mixture was left standing for 120 min at room temperature. The final concentration of CDK12/CycK complex, BODIPY-FL-labeled AT-7519, terbium-labeled streptavidin and biotin-labeled anti-histidine antibody was set to 2 nM, 66 nM, 0.2 nM, and 0.4 nM, respectively. The fluorescence intensity derived from terbium and BODIPY-FL was measured using Envision. The signal value of each well was determined using the TR-FRET ratio calculated by the following formula. TR-FRET ratio=(fluorescence value of BODIPY-FL)÷(fluorescence value of terbium)
# The inhibitory rate (%) of the test compound against CDK12 was calculated by the following formula. Inhibitory rate (%)=(1−(TR-FRET ratio of test compound−blank)÷(control−blank))×100
# The TR-FRET ratio of the CDK12 enzyme reaction mixture under compound non-addition conditions is indicated as control, and the TR-FRET ratio under 3 μM AT-7519 addition conditions is indicated as blank.
# The inhibitory rate of the test compound against CDK12 at […] is shown below.
# Sequence of CDK12/CycK complex (Q9NYV4 whole entry, species assumed): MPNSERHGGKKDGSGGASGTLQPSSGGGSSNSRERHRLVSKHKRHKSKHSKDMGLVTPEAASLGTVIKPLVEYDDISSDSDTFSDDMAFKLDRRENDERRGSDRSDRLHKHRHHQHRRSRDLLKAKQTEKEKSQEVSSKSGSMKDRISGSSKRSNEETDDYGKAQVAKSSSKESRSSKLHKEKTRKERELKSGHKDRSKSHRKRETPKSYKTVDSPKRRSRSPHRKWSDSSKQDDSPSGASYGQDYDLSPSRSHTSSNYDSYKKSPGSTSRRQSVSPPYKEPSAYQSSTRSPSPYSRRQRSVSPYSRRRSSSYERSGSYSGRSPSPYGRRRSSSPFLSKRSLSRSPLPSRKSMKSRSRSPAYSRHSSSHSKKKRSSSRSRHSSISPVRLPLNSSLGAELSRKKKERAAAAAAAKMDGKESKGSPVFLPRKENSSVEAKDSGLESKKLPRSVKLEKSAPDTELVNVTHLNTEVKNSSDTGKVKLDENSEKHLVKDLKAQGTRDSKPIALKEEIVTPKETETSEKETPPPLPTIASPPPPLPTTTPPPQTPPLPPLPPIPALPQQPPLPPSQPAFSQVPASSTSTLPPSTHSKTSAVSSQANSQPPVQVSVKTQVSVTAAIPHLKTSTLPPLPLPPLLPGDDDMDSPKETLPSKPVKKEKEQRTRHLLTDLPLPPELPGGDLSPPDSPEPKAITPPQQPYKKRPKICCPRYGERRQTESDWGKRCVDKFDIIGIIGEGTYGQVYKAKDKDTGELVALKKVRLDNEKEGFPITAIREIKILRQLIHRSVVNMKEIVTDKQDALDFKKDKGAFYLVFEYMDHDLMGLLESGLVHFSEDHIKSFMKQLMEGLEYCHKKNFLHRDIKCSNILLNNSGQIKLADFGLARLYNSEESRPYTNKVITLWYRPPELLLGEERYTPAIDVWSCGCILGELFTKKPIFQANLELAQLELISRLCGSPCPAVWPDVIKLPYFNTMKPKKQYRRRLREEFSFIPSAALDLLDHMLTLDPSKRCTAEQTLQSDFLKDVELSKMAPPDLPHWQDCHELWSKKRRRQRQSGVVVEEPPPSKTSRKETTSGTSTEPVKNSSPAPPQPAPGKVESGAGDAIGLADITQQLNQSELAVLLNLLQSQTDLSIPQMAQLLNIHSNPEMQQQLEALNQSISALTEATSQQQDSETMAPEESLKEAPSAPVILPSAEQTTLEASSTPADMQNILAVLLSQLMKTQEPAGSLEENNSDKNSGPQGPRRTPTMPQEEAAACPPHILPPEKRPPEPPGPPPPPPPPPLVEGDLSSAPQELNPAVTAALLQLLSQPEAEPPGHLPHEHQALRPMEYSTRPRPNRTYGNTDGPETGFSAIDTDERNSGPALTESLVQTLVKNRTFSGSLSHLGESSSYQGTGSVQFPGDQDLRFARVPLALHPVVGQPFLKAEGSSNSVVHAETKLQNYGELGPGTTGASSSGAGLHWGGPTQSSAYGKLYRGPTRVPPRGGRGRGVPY
# Sequence of CDK12/CycK complex (O75909 whole entry partner, species assumed): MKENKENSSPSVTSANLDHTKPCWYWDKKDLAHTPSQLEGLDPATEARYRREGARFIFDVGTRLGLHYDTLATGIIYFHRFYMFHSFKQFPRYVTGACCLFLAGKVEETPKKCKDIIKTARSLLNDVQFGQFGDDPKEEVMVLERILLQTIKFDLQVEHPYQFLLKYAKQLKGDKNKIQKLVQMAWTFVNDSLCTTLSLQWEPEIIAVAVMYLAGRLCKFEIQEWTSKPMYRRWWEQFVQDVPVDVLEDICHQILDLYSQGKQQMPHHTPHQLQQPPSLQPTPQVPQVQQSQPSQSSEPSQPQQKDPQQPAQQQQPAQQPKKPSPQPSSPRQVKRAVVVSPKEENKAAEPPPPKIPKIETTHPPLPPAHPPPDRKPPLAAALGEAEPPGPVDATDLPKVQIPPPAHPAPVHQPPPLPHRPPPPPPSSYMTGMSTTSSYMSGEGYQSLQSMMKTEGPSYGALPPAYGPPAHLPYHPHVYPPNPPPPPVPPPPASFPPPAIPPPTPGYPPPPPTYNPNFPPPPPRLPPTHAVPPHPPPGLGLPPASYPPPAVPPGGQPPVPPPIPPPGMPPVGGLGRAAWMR
row,Structure (SMILES),inhibition at 1 µM
1,"Cn1cc(-c2ccc(N(C(=O)NCc3ccccc3)[C@H]3CC[C@H](Nc4ncc(C#N)c(NCCCO)n4)CC3)cc2)cn1 [Example 199, 3-benzyl-1-(trans-4-((5-cyano-4-((3-hydroxypropyl)amino)pyrimidin-2-yl)amino)cyclohexyl)-1-(4-(1-methyl-1H-pyrazol-4-yl)phenyl)urea]",101%
2,"Cn1cc(-c2ccc(N(C(=O)NCc3ccccc3)[C@H]3CC[C@H](Nc4ncc(C#N)c(N5CC(C)(O)C5)n4)CC3)nc2)cn1 [Example 482, 3-benzyl-1-(trans-4-((5-cyano-4-(3-hydroxy-3-methylazetidin-1-yl)pyrimidin-2-yl)amino)cyclohexyl)-1-(5-(1-methyl-1H-pyrazol-4-yl)pyridin-2-yl) urea]",104%
3,"Cn1cc(-c2ccc(N(C(=O)NCc3ccccc3)[C@H]3CC[C@H](Nc4ncc(C#N)c(NC5COC5)n4)CC3)cc2)ccc1=O [Example 483, 3-benzyl-1-(trans-4-((5-cyano-4-(oxetan-3-ylamino)pyrimidin-2-yl)amino)cyclohexyl)-1-(4-(1-methyl-6-oxo-1,6-dihydropyridin-3-yl)phenyl)urea]",103%
4,"Cn1ccc(-c2ccc(N(C(=O)NCc3ccccc3)[C@H]3CC[C@H](Nc4ncc(C#N)c(-c5ccc(C#N)s5)n4)CC3)cn2)cc1=O [Example 492, 3-benzyl-1-(trans-4-((5-cyano-4-(5-cyano-2-thienyl)pyrimidin-2-yl)amino)cyclohexyl)-1-(1′-methyl-2′-oxo-1′,2′-dihydro-2,4′-bipyridin-5-yl)urea]",92%
5,"Cn1cc(-c2cnc(N(C(=O)NCc3ccccc3)[C@H]3CC[C@H](Nc4ncc(C#N)c(-c5ccc(C#N)s5)n4)CC3)cn2)cn1 [Example 495, 3-benzyl-1-(trans-4-((5-cyano-4-(5-cyano-2-thienyl)pyrimidin-2-yl)amino)cyclohexyl)-1-(5-(1-methyl-1H-pyrazol-4-yl)pyrazin-2-yl)urea]",81%
6,"Cn1cc(-c2ccc(N(C(=O)NCc3ccccc3)[C@H]3CC[C@H](Nc4ncc(C#N)c(NC5COC5)n4)CC3)nn2)cn1 [Example 532, 3-benzyl-1-(trans-4-((5-cyano-4-(oxetan-3-ylamino)pyrimidin-2-yl)amino)cyclohexyl)-1-(6-(1-methyl-1H-pyrazol-4-yl)pyridazin-3-yl)urea]",106%
7,"Cn1cc(-c2ccc(N(C(=O)NCc3ccccc3)[C@H]3CC[C@H](Nc4ncc(C#N)c(-c5ccc(C#N)s5)n4)CC3)nn2)cn1 [Example 538, 3-benzyl-1-(trans-4-((5-cyano-4-(5-cyano-2-thienyl)pyrimidin-2-yl)amino)cyclohexyl)-1-(6-(1-methyl-1H-pyrazol-4-yl)pyridazin-3-yl)urea]",86%
8,"Cc1cc(-c2nc(N[C@H]3CC[C@H](N(C(=O)NCc4ccccc4)c4ccc(-c5cnn(C)c5)nn4)CC3)ncc2C#N)[nH]n1 [Example 542, 3-benzyl-1-(trans-4-((5-cyano-4-(3-methyl-1H-pyrazol-5-yl)pyrimidin-2-yl)amino)cyclohexyl)-1-(6-(1-methyl-1H-pyrazol-4-yl)pyridazin-3-yl)urea]",100%
9,"Cc1cc(-c2nc(N[C@H]3CC[C@H](N(C(=O)NCc4ccccc4)c4cnc(-c5cnn(C)c5)cn4)CC3)ncc2C#N)[nH]n1 [Example 552, 3-benzyl-1-(trans-4-((5-cyano-4-(3-methyl-1H-pyrazol-5-yl)pyrimidin-2-yl)amino)cyclohexyl)-1-(5-(1-methyl-1H-pyrazol-4-yl)pyrazin-2-yl) urea]",98%
10,"COc1ncc(-c2ccc(N(C(=O)COc3ccccc3)[C@H]3CC[C@H](Nc4ncc(C#N)c(NC5COC5)n4)CC3)nc2)cn1 [Example 587, N-(trans-4-((5-cyano-4-(oxetan-3-ylamino)pyrimidin-2-yl)amino)cyclohexyl)-N-(5-(2-methoxypyrimidin-5-yl)pyridin-2-yl)-2-phenoxyacetamide]",102%
11,"COc1ncc(-c2ccc(N(C(=O)NCc3ccccc3)[C@H]3CC[C@H](Nc4ncc(C(F)(F)F)c(N5CCCC(O)CC5)n4)CC3)nc2)cn1 (stereo partly drawn) [Example 592, 3-benzyl-1-(trans-4-((4-(4-hydroxyazepan-1-yl)-5-(trifluoromethyl)pyrimidin-2-yl)amino)cyclohexyl)-1-(5-(2-methoxypyrimidin-5-yl)pyridin-2-yl)urea]",101%
12,"COc1ncc(-c2ccc(N(C(=O)NCc3ccccc3)[C@H]3CC[C@H](Nc4ncc(C#N)c(N5CCCC(O)CC5)n4)CC3)nc2)cn1 (stereo partly drawn) [Example 595, 3-benzyl-1-(trans-4-((5-cyano-4-(4-hydroxyazepan-1-yl)pyrimidin-2-yl)amino)cyclohexyl)-1-(5-(2-methoxypyrimidin-5-yl)pyridin-2-yl)urea]",104%
13,"COc1ncc(-c2ccc(N(C(=O)OCc3ccccc3)[C@H]3CC[C@H](Nc4ncc(C#N)c(N5CCCC(O)CC5)n4)CC3)nc2)cn1 (stereo partly drawn) [Example 599, benzyl (trans-4-((5-cyano-4-(4-hydroxyazepan-1-yl)pyrimidin-2-yl)amino)cyclohexyl) (5-(2-methoxypyrimidin-5-yl)pyridin-2-yl)carbamate]",102%
14,"COc1ncc(-c2cnc(N(C(=O)NCc3ccccc3)[C@H]3CC[C@H](Nc4ncc(C(F)(F)F)c(OC5COC5)n4)CC3)nc2)cn1 [Example 606, 3-benzyl-1-(2′-methoxy-5,5′-bipyrimidin-2-yl)-1-(trans-4-((4-(oxetan-3-yloxy)-5-(trifluoromethyl)pyrimidin-2-yl)amino)cyclohexyl)urea]",96%
15,"COc1ncc(-c2cnc(N(C(=O)OCc3ccccc3)[C@H]3CC[C@H](Nc4ncc(C#N)c(N5CC(C)(O)C5)n4)CC3)nc2)cn1 [Example 619, benzyl (trans-4-((5-cyano-4-(3-hydroxy-3-methylazetidin-1-yl)pyrimidin-2-yl)amino)cyclohexyl) (2′-methoxy-5,5′-bipyrimidin-2-yl)carbamate]",98%
16,"COc1ncc(-c2cnc(N(C(=O)NCc3ccccc3)[C@H]3CC[C@H](Nc4ncc(C#N)c(N5CC(C)(O)C5)n4)CC3)cn2)cn1 [Example 620, 3-benzyl-1-(trans-4-((5-cyano-4-(3-hydroxy-3-methylazetidin-1-yl)pyrimidin-2-yl)amino)cyclohexyl)-1-(5-(2-methoxypyrimidin-5-yl)pyrazin-2-yl)urea]",97%
17,"COc1ncc(-c2ccc(N(C(=O)COc3ccccc3)[C@H]3CC[C@H](Nc4ncc(C(F)(F)F)c(N5CC(C)(O)C5)n4)CC3)nc2)cn1 [Example 623, N-(trans-4-((4-(3-hydroxy-3-methylazetidin-1-yl)-5-(trifluoromethyl)pyrimidin-2-yl)amino)cyclohexyl)-N-(5-(2-methoxypyrimidin-5-yl)pyridin-2-yl)-2-phenoxyacetamide]",100%
18,"COc1ncc(-c2ccc(N(C(=O)NCc3ccccc3)[C@H]3CC[C@H](Nc4ncc(C(F)(F)F)c(N5CC(C)(O)C5)n4)CC3)nc2)cn1 [Example 625, 3-benzyl-1-(trans-4-((4-(3-hydroxy-3-methylazetidin-1-yl)-5-(trifluoromethyl)pyrimidin-2-yl)amino)cyclohexyl)-1-(5-(2-methoxypyrimidin-5-yl)pyridin-2-yl)urea]",103%
19,"COc1ncc(-c2ccc(N(C(=O)NCc3ccccc3)[C@H]3CC[C@H](Nc4ncc(C#N)c(N5CC(C)(O)C5)n4)CC3)nc2)cn1 [Example 626, 3-benzyl-1-(trans-4-((5-cyano-4-(3-hydroxy-3-methylazetidin-1-yl)pyrimidin-2-yl)amino)cyclohexyl)-1-(5-(2-methoxypyrimidin-5-yl)pyridin-2-yl)urea]",105%
20,"COc1ncc(-c2ccc(N(C(=O)COc3ccccc3)[C@H]3CC[C@H](Nc4ncc(C(F)(F)F)c(OC5COC5)n4)CC3)nc2)cn1 [Example 627, N-(5-(2-methoxypyrimidin-5-yl)pyridin-2-yl)-N-(trans-4-((4-(oxetan-3-yloxy)-5-(trifluoromethyl)pyrimidin-2-yl)amino)cyclohexyl)-2-phenoxyacetamide]",98%
21,"COc1ncc(-c2ccc(N(C(=O)OCc3ccccn3)[C@H]3CC[C@H](Nc4ncc(C(F)(F)F)c(N5CC(C)(O)C5)n4)CC3)nc2)cn1 [Example 628, pyridin-2-ylmethyl (trans-4-((4-(3-hydroxy-3-methylazetidin-1-yl)-5-(trifluoromethyl)pyrimidin-2-yl)amino)cyclohexyl) (5-(2-methoxypyrimidin-5-yl)pyridin-2-yl)carbamate]",100%
22,"COc1ncc(-c2ccc(N(C(=O)OCc3ccccn3)[C@H]3CC[C@H](Nc4ncc(C(F)(F)F)c(OC5COC5)n4)CC3)nc2)cn1 [Example 629, pyridin-2-ylmethyl (5-(2-methoxypyrimidin-5-yl)pyridin-2-yl) (trans-4-((4-(oxetan-3-yloxy)-5-(trifluoromethyl)pyrimidin-2-yl)amino)cyclohexyl)carbamate]",100%
23,"COc1ncc(-c2ccc(N(C(=O)NCc3ccccn3)[C@H]3CC[C@H](Nc4ncc(C(F)(F)F)c(N5CC(C)(O)C5)n4)CC3)nc2)cn1 [Example 630, 1-(trans-4-((4-(3-hydroxy-3-methylazetidin-1-yl)-5-(trifluoromethyl)pyrimidin-2-yl)amino)cyclohexyl)-1-(5-(2-methoxypyrimidin-5-yl)pyridin-2-yl)-3-(pyridin-2-ylmethyl)urea]",104%

# Source: US11584737B2, “Heterocyclic compound” (TAKEDA PHARMACEUTICAL COMPANY LIMITED, priority 2018, dated 2023)
